According to patent US9670223B2, “Compounds with super-aspirin effects” (SOLVOTRIN THERAPEUTICS LTD., priority 2011, dated 2017):
Entries after “also recorded” stand apart in the source; their conditions may differ.

What was measured:
washed platelets (WP) = assay: Collagen-induced platelet aggregation in washed platelets (light aggregometry); type: cell-based, human; set-up: IC50: unit of the concentration uncertain; conditions: for IC50: inhibition of platelet aggregation in response to collagen (5 (unit uncertain)), washed platelets; for effect of eserine on inhibition of collagen-induced aggregation in WP: physostigmine (eserine) 10 μM
Procedure: (§1) PRP and WP (2.5×10^8 platelets ml^−1) were prepared from blood. Briefly 36 ml whole blood was collected into 4 ml of 3.15% sodium citrate; this was centrifuged at 250 ¥g for 20 min (with gentle acceleration and deceleration). At this point PRP, which had separated from white blood cells and red blood cells, was gently removed. When WP were required this PRP was centrifuged at 700 g for 10 min (with gentle acceleration and deceleration) in the presence of prostacyclin. The platelet-poor plasma (PPP) was removed and the platelet pellet was washed three times with Tyrode's buffer, before being re-suspended in Tyrode's buffer to a concentration of 2.5 ¥108 platelets/ml.
(§2) Platelet aggregation was measured by light aggregometry. […] Aggregation was initiated by the addition of agonists, and monitored by Aggro-Link software for at least 6 min.
(§3) To study the aggregatory potency of ADP, the concentration-response (0.3-10 μM) curves were generated. Collagen at different concentrations (2-5 μg/ml) was also used to induce platelet aggregation. Submaximal concentrations of agonists, i.e. the concentrations that gave approximately 95% of the maximal aggregation were used to study the effects of inhibitors of aggregation. Aspirin and aspirin prodrugs was incubated for various intervals prior to the addition of aggregating agents.
To study the involvement of plasma BuChE in the activation of ST0701, purified BuChE (3 U/ml) was incubated with WP for 5 min in the aggregometer with stirring at 900 r.p.m. before the addition of the test compounds ST0701 which was incubated with the WP for a further 10 min, prior to the addition of collagen (5 ug/ml).
(§4) Eserine (in DMSO, 10 μM, giving a final concentration≦0.25% DMSO, which pilot studies had determined not to affect platelet aggregation) was preincubated with PRP or WP for 5 min in the aggregometer with stirring at 900 r.p.m. before the addition of test compounds (ST0701-05), which were incubated in PRP or WP for a further 10 min prior to the addition of an agonist (10 μM ADP or 5 μg/ml Collagen) to induce platelet aggregation.
Phenylmethylsulphonylfluoride (PMSF) 20, 50 and 100 μM dissolved in EtOH (<0.2% EtOH, which pilot studies had determined not to affect platelet aggregation) was preincubated in WP in the aggregometer for 5 min with stirring at 900 r.p.m. before the addition of test compound ST0702 to the WP, which was further incubated for 10 min prior to the addition of collagen (2 μg/ml) to induce platelet aggregation.

[1] = test system: platelet rich plasma (PRP); assay: ADP-induced platelet aggregation in PRP; type: cell-based, human; conditions: ADP 10 μM, PRP; for effect of ODQ pretreatment on inhibition of ADP induced aggregation: ODQ 10 μM, compounds 100 μM
Procedure: as §1, §2, §3, §4
1H-[1,2,4]Oxadiazolo[4,3-a]quinoxalin-1-one (ODQ, dissolved in 100% DMSO, used at a final concentration of 10 μM, which gave a final concentration not more than 0.25% DMSO) was preincubated with PRP or WP for 5 min in the aggregometer with stirring at 900 r.p.m. before the addition of test compounds (ST0701-05), which were incubated in PRP or WP for a further 10 min prior to the addition of an agonist (10 μM ADP or 5 μg/ml collagen) to induce platelet aggregation.
Eserine (10 μM) was incubated with PRP for 5 min in the aggregometer with stirring at 900 r.p.m. before the addition of test compound ST0702 salicylate (500 μM), which was incubated in PRP for a further 10 min prior to the addition of the agonist ADP (10 μM) to induce platelet aggregation.

59M cells = assay: Tumour cell-induced platelet aggregation (TCIPA), static conditions, 59M; type: cell-based, human; conditions: for inhibition of TCIPA induced by 59M: static, WP, 300 and 500 μM, 59M 1×10^3/ml
Description: ISAS meanwhile is hydrolysed to aspirin and salicylic acid. […] The structure of platelet-tumor cell aggregates was studied using phase-contrast microscopy (Alonso-Escolano et al., 2004; Jurasz et al., 2001). […] Aliquots of each sample were then taken for phase-contrast microscopy examination using an Olympus CKX41 microscope (Olympus America Inc., […].). Photomicrographs were captured using a digital camera and MicroFire (Olympus America Inc.) software (Alonso-Escolano et al., 2004; Jurasz et al., 2001).

P-selectin = assay: Flow cytometry of platelet P-selectin during TCIPA induced by 59M cells; type: cell-based, human; conditions: 300 μM
[2] = cited from earlier work; for % Aspirin release: in human plasma, From Reference 7

SMILES	IC50 (washed platelets (WP); Homo sapiens, Platelet) [µM]	IC50 (washed platelets (WP)) [µM]	effect of eserine on inhibition of collagen-induced aggregation in WP (washed platelets (WP))	inhibition of ADP (10 μM) induced aggregation in PRP, comparison in words [1]	effect of ODQ pretreatment on inhibition of ADP induced aggregation [1]	inhibition of TCIPA induced by 59M (59M cells)	inhibition of TCIPA induced by 59M (59M cells; listed as aspirin)	59M-mediated increase in platelet surface P-selectin (P-selectin)	% Aspirin release [2]	effect of ST0702 on collagen-induced aggregation in WP after PMSF pretreatment (washed platelets (WP); PMSF 50 μM, 20 μM, not significant)	effect of ST0702 on collagen-induced aggregation in WP after PMSF pretreatment (washed platelets (WP); PMSF 100 μM, ST0702 200 μM (200-300 μM elsewhere in the source), collagen 2 μg/ml)	effect on TCIPA when tumour cells were preincubated with compound (59M cells; 59M cells preincubated)	aspirin released in vitro ([2]; human plasma solution / in-vitro, of available (stoichiometric) aspirin, listed as ISANA) [%]
CC(=O)Oc1ccccc1C(=O)O [Aspirin]	35	34	did not affect the inhibitory actions	consistently less inhibition of aggregation than ST0701/02	increased the inhibition	did not exert any significant effect	did not exert a significant effect	failed to prevent	100%	–	–	–	–
CC(=O)Oc1ccccc1C(=O)O[C@H]1CO[C@H]2[C@@H]1OC[C@H]2OC(=O)c1cccnc1 [ST0702, isosorbide-2-aspirinate-5-nicotinate]	154	–	not abolished	more efficacious than aspirin	increased the inhibition	consistently inhibited TCIPA	–	significantly (P<0.01, n=4) inhibited	30-45%	slightly attenuated	significantly attenuated; also recorded: abolished	no effect on TCIPA	40
